Reference: ChEMBL document CHEMBL1949629, “Discovery of a second generation agonist of the orphan G-protein coupled receptor GPR119 with an improved profile” (Bioorg Med Chem Lett, 2012)
≈ marks a conversion by molar mass, not a printed value. Values belong to the compound of their own block, whether it stands above or below them. Calls of active or inactive are those of the source. No cut-off for these calls is given here.

Experiments:
[1] = Solubility in 40% HPbetaCD after 24 hrs; format: physicochemical
[2] = Solubility in 20% HPbetaCD after 24 hrs; format: physicochemical
Cytochrome P450 2C9 = Cytochrome P450 2C9 (Homo sapiens, UniProt P11712); assay: Inhibition of CYP2C9; format: ADME
[3] = Half life cynomolgus monkey at 25 to 400 mg administered once daily; format: ADME, organism-based, Macaca fascicularis; settings: in vivo
Rattus norvegicus [4] = assay: Drug metabolism in po dosed rat assessed as 5-methoxy-6-(2-methyl-6-(methylsulfonyl)pyridin-3-ylamino)pyrimidin-4-ol formation; format: ADME, organism-based; settings: in vivo
Cavia porcellus [5] = assay: Toxicity in guinea pig assessed as change in heart rate at 5 mg/kg, iv; format: organism-based; design: dose 5 mg/kg, route intravenous; settings: in vivo
Mus musculus [6] = assay: Antidiabetic activity in fasted C57bl/6j mouse assessed as reduction in AUC of glucose at 1 mg/kg, po administered 30 mins prior glucose challenge by oral glucose tolerance test; format: functional, organism-based; design: dose 1 mg/kg
[7] = Half life in Sprague-Dawley rat at 10 mg/kg, po; settings: in vivo
[8] = Mean residence time in C57Bl mouse at 10 mg/kg, po; format: ADME, organism-based; design: dose 10 mg/kg, route oral; settings: in vivo
[9] = Tmax in Sprague-Dawley rat at 10 mg/kg, po; format: ADME, organism-based; design: dose 10 mg/kg, route oral; settings: in vivo
Cynomolgus monkey [10] = assay: Drug concentration in cynomolgus monkey measured at initiation of the oral glucose tolerance test at 3 mg/kg; format: ADME, organism-based, Macaca fascicularis; design: dose 3 mg/kg, route oral; settings: in vivo
[11] = Permeability from apical to basolateral side of human Caco2 cells; format: ADME, cell-based; settings: Caco-2, read-out: permeability
[12] = Tmax in Beagle dog at 7.85 mg/kg, po; format: ADME, organism-based, Canis lupus familiaris; design: dose 7.85 mg/kg, route oral; settings: in vivo
[13] = Tmax in cynomolgus monkey at 10 mg/kg, po; format: ADME, organism-based, Macaca fascicularis; design: dose 10 mg/kg, route oral; settings: in vivo
[14] = Half life in human liver microsomes; format: ADME, Microsome
[15] = Half life in rat liver microsomes; format: ADME, Microsome
Rattus norvegicus [16] = assay: Antidiabetic activity in ZDF rat assessed as blood glucose AUC at 3 mg/kg administered 60 mins prior glucose challenge by oral glucose tolerance test relative to vehicle treated control; format: functional
in vivo = settings: beagle, dog, po, 7.85 mg/kg
Description: Half life in Beagle dog at 7.85 mg/kg, po

Rattus norvegicus [17] = assay: Drug metabolism in po dosed rat assessed as isopropyl 2-hydroxy-4-(5-methoxy-6-(2-methyl-6-(methylsulfonyl)pyridin-3-ylamino)pyrimidin-4-yloxy)piperidine-1-carboxylate formation; format: ADME, organism-based; settings: in vivo
[18] = Cmax in cynomolgus monkey at 10 mg/kg, po; format: ADME, organism-based, Macaca fascicularis; design: dose 10 mg/kg, route oral; settings: in vivo
Rattus norvegicus [19] = assay: Antidiabetic activity in fasted Sprague-Dawley rat assessed as reduction in AUC of glucose at 3 mg/kg, po administered 30 mins prior glucose challenge by oral glucose tolerance test; format: functional, organism-based; design: dose 3 mg/kg
Rattus norvegicus [20] = assay: Antidiabetic activity in fasted Sprague-Dawley rat assessed as reduction in AUC of glucose at 30 mg/kg, po administered 30 mins prior glucose challenge by oral glucose tolerance test; format: functional, organism-based; design: dose 30 mg/kg
[21] = Mean residence time in Beagle dog at 7.85 mg/kg, po; format: ADME, organism-based, Canis lupus familiaris; design: dose 7.85 mg/kg, route oral; settings: in vivo
Rattus norvegicus [22] = assay: Drug concentration in ZDF rat measured at initiation of the oral glucose tolerance test at 3 mg/kg; format: ADME, organism-based; design: dose 3 mg/kg, route oral; settings: in vivo
[23] = AUC (0 to infinity) in Beagle dog at 7.85 mg/kg, po; format: ADME, organism-based, Canis lupus familiaris; design: time infinity, dose 7.85 mg/kg, route oral; settings: plasma
[24] = Half life in cynomolgus monkey at 10 mg/kg, po; settings: in vivo
[25] = Permeability from basolateral to apical side of human Caco2 cells; format: ADME, cell-based; settings: Caco-2, read-out: permeability
[26] = AUC (0 to infinity) in C57Bl mouse at 10 mg/kg, po; format: ADME, organism-based; design: time infinity, dose 10 mg/kg, route oral; settings: plasma
Mus musculus [27] = assay: Antidiabetic activity in fasted C57bl/6j mouse assessed as reduction in AUC of glucose at 10 mg/kg, po administered 30 mins prior glucose challenge by oral glucose tolerance test; format: functional, organism-based; design: dose 10 mg/kg
[28] = Solubility in water at pH 2; format: physicochemical
Cynomolgus monkey [29] = assay: Antidiabetic activity in cynomolgus monkey assessed as blood glucose AUC at 3 mg/kg administered 60 mins prior glucose challenge by oral glucose tolerance test relative to vehicle treated control; format: functional, Macaca fascicularis
[30] = Clearance in iv dosed Sprague-Dawley rat; format: ADME, organism-based; settings: in vivo
Mus musculus [31] = assay: Antidiabetic activity in ob/ob mouse assessed as blood glucose AUC at 3 mg/kg administered 60 mins prior glucose challenge by oral glucose tolerance test relative to vehicle treated control; format: functional
[32] = Mean residence time in Sprague-Dawley rat at 10 mg/kg, po; format: ADME, organism-based; design: dose 10 mg/kg, route oral; settings: in vivo
Canis familiaris [33] = assay: Toxicity in dog assessed as developmental abnormality dosed for 7 days; format: organism-based, Canis lupus familiaris; settings: in vivo, 168 h
[34] = Cmax in C57Bl mouse at 10 mg/kg, po; format: ADME, organism-based; design: dose 10 mg/kg, route oral; settings: in vivo
[35] = Solubility in water at pH 7; format: physicochemical; settings: buffer
[36] = Mean residence time in cynomolgus monkey at 10 mg/kg, po; format: ADME, organism-based, Macaca fascicularis; design: dose 10 mg/kg, route oral; settings: in vivo
[37] = target: Voltage-gated inwardly rectifying potassium channel KCNH2 (Homo sapiens, UniProt Q12809); assay: Inhibition of human ERG
[38] = Elimination half life in rat; settings: in vivo
[39] = Cmax in Beagle dog at 7.85 mg/kg, po; format: ADME, organism-based, Canis lupus familiaris; design: dose 7.85 mg/kg, route oral; settings: in vivo
Rattus norvegicus [40] = assay: Toxicity in rat assessed as developmental abnormality dosed for 14 days; format: organism-based; settings: in vivo, 336 h
Rattus norvegicus [41] = assay: Drug concentration in Sprague-Dawley rat measured at initiation of the oral glucose tolerance test at 3 mg/kg; format: ADME, organism-based; design: dose 3 mg/kg, route oral; settings: in vivo
[42] = AUC (0 to infinity) in Sprague-Dawley rat at 10 mg/kg, po; format: ADME, organism-based; design: time infinity, dose 10 mg/kg, route oral; settings: plasma
Rattus norvegicus [43] = assay: Antidiabetic activity in Sprague-Dawley rat assessed as blood glucose AUC at 3 mg/kg administered 60 mins prior glucose challenge by oral glucose tolerance test relative to vehicle treated control; format: functional
Cavia porcellus [44] = assay: Toxicity in guinea pig assessed as mean arterial blood pressure change at 5 mg/kg, iv; format: organism-based; design: dose 5 mg/kg, route intravenous; settings: in vivo
[45] = Cmax in Sprague-Dawley rat at 10 mg/kg, po; format: ADME, organism-based; design: dose 10 mg/kg, route oral; settings: in vivo
Canis familiaris [46] = species on record: Canis familiaris; assay: Clearance in dog relative to hepatic blood flow; format: ADME, organism-based, Canis lupus familiaris, Liver; settings: in vivo
Cavia porcellus [47] = assay: Toxicity in guinea pig assessed as change in ECG at 5 mg/kg, iv; format: organism-based; design: dose 5 mg/kg, route intravenous; settings: in vivo
[48] = Clearance in iv dosed Cynomolgus monkey; format: ADME, organism-based, Macaca fascicularis; settings: in vivo
Rattus norvegicus [49] = species on record: Rattus norvegicus; assay: Clearance in rat relative to hepatic blood flow; format: ADME, organism-based, Liver; settings: in vivo
[50] = Clearance in iv dosed Beagle dog; format: ADME, organism-based, Canis lupus familiaris; settings: in vivo
[51] = Half life in C57Bl mouse at 10 mg/kg, po; settings: in vivo
[52] = AUC (0 to infinity) in cynomolgus monkey at 10 mg/kg, po; format: ADME, organism-based, Macaca fascicularis; design: time infinity, dose 10 mg/kg, route oral; settings: plasma
[53] = Tmax in C57Bl mouse at 10 mg/kg, po; format: ADME, organism-based; design: dose 10 mg/kg, route oral; settings: in vivo
[54] = Elimination half life in dog; settings: in vivo
Rattus norvegicus [55] = assay: Drug metabolism in po dosed rat assessed as 5-methoxy-N-(2-methyl-6-(methylsulfonyl)pyridin-3-yl)-6-(piperidin-4-yloxy)pyrimidin-4-amine formation; format: ADME, organism-based; settings: in vivo
[56] = Solubility in water at low pH; format: physicochemical; settings: buffer
[57] = Solubility in water; format: physicochemical; settings: buffer

Chain of Cytochrome P450 2C9 (P11712 whole entry): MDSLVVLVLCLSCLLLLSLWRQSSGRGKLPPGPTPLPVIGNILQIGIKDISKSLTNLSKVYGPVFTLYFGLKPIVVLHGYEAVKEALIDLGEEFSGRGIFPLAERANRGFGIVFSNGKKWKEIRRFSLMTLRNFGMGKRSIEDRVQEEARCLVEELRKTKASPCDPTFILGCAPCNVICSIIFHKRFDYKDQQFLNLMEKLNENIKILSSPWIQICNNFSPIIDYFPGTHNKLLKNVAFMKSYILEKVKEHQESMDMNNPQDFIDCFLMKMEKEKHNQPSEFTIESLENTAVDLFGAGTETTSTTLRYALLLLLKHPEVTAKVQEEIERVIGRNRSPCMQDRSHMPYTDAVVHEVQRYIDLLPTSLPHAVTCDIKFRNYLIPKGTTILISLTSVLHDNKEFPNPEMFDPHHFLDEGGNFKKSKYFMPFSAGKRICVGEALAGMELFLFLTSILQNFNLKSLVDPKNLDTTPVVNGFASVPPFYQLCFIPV
Chain of Voltage-gated inwardly rectifying potassium channel KCNH2 (Q12809 whole entry): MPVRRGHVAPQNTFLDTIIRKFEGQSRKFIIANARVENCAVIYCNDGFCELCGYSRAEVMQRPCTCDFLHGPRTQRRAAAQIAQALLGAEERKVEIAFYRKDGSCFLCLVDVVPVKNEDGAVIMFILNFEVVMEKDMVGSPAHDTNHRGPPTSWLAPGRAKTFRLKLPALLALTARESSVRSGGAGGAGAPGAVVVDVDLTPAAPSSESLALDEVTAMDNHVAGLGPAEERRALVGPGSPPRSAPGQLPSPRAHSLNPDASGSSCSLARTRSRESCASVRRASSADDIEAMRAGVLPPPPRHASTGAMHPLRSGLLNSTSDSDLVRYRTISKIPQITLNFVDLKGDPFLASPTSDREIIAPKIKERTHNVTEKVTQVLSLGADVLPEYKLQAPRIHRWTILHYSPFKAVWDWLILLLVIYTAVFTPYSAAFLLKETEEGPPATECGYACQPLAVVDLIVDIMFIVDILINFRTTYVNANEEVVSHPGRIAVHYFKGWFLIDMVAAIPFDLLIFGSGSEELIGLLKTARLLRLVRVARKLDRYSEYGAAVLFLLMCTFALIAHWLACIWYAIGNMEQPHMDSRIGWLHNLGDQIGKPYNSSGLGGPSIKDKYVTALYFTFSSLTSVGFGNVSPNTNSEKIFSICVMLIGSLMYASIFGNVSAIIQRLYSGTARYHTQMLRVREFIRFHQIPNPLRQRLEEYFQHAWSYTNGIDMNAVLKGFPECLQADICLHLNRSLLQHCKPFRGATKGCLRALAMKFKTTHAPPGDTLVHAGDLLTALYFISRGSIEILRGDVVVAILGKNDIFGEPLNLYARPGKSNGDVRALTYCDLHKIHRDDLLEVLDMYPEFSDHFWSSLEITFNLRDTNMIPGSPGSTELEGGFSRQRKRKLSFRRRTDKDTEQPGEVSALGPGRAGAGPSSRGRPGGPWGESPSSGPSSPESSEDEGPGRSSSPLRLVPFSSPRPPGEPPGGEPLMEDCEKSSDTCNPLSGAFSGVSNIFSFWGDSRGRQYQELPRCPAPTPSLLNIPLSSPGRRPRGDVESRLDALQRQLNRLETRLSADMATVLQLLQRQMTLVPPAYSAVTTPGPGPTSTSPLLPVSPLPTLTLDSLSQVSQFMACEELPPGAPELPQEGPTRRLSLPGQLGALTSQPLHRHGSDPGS

Compound: Cc1c(Nc2ccc(S(C)(=O)=O)nc2)ncnc1OC1CCN(C(=O)OC(C)C)CC1
solubility at 24 h [2]: 21.3 mg/mL (≈ 47.4 mM)

Compound: CC(CO)OC(=O)N1CCC(Oc2ncnc3c2cnn3-c2ccc(S(C)(=O)=O)cc2F)CC1 (stereo not given)
half-life [3]: 2460 min

Compound: COc1c(Nc2ccc(S(C)(=O)=O)nc2C)ncnc1OC1CCN(C(=O)OC(C)C)CC1 [ADP-597]
Drug metabolism (Rattus norvegicus [4]): Active | solubility at 24 h [2]: 33 mg/mL (≈ 68.8 mM) | Activity (Cavia porcellus [5]): Non-toxic | Activity (Mus musculus [6]): Active | half-life [7]: 258 min | MRT [8]: 7.9 h | Tmax [9]: 1 h | Drug uptake (Cynomolgus monkey [10]): 112 ng/mL | Papp A→B [11]: 26 ×10⁻⁶ cm/s | Tmax [12]: 8 h | IC50 (Cytochrome P450 2C9): 8 µM | Tmax [13]: 6 h | half-life [14]: > 60 min | half-life [15]: > 60 min | Activity (Rattus norvegicus [16]): 72.8% | half-life (in vivo): 654 min | Drug metabolism (Rattus norvegicus [17]): Active | Cmax [18]: 4800 ng/mL | Activity (Rattus norvegicus [19]): Active | Activity (Rattus norvegicus [20]): Active | MRT [21]: 10.9 h | Drug uptake (Rattus norvegicus [22]): 1592 ng/mL | AUC(0-inf) [23]: 43700 ng·h/mL | half-life [24]: 264 min | Papp B→A [25]: 15 ×10⁻⁶ cm/s | AUC(0-inf) [26]: 320 µg·h/mL | Activity (Mus musculus [27]): Active | solubility [28]: 310 µg/mL (≈ 0.646 mM) | Activity (Cynomolgus monkey [29]): 82.8% | clearance [30]: 9.67 mL/min/kg | Activity (Mus musculus [31]): 78.4% | MRT [32]: 6.8 h | Activity (Canis familiaris [33]): Non-toxic | Cmax [34]: 25800 ng/mL | solubility [35]: 0.11 mg/mL (≈ 0.229 mM) | MRT [36]: 8.4 h | IC50 [37]: > 10 µM | half-life [38]: 180 min | Cmax [39]: 1980 ng/mL | Activity (Rattus norvegicus [40]): Non-toxic | Drug uptake (Rattus norvegicus [41]): 482 ng/mL | AUC(0-inf) [42]: 12500 ng·h/mL | Activity (Rattus norvegicus [43]): 85.1% | Activity (Cavia porcellus [44]): Non-toxic | Cmax [45]: 1390 ng/mL | CL (Canis familiaris [46]): 16% | Activity (Cavia porcellus [47]): Non-toxic | clearance [48]: 1.83 mL/min/kg | CL (Rattus norvegicus [49]): 16% | clearance [50]: 0.667 mL/min/kg | half-life [51]: 354 min | AUC(0-inf) [52]: 64200 ng·h/mL | Tmax [53]: 2 h | half-life [54]: 420 min | Drug metabolism (Rattus norvegicus [55]): Active

Compound: Cc1nc(S(C)(=O)=O)ccc1Nc1ncnc(OC2CCN(C(=O)OC(C)C)CC2)c1C
solubility at 24 h [2]: 24 mg/mL (≈ 51.8 mM) | solubility [56]: soluble | IC50 (Cytochrome P450 2C9): 2.5 µM | solubility [57]: Insoluble

Results, then the compound that gave them:

solubility at 24 h [1]: 16.7 mg/mL (≈ 35.8 mM)
Compound: Cc1c(Nc2ccc(S(C)(=O)=O)cc2F)ncnc1OC1CCN(C(=O)OC(C)C)CC1

solubility at 24 h [2]: 13.1 mg/mL (≈ 28.2 mM)
Compound: Cc1cc(S(C)(=O)=O)ncc1Oc1ncnc(OC2CCN(C(=O)OC(C)C)CC2)c1C

solubility at 24 h [1]: 15.9 mg/mL (≈ 41.1 mM) | solubility at 24 h [2]: 15.9 mg/mL (≈ 41.1 mM)
Compound: Cc1ncccc1Oc1ncnc(OC2CCN(C(=O)OC(C)C)CC2)c1C

solubility at 24 h [1]: 8.5 mg/mL (≈ 22 mM)
Compound: Cc1ccncc1Oc1ncnc(OC2CCN(C(=O)OC(C)C)CC2)c1C

solubility at 24 h [2]: 6.7 mg/mL (≈ 14.4 mM)
Compound: Cc1nc(S(C)(=O)=O)ccc1Oc1ncnc(OC2CCN(C(=O)OC(C)C)CC2)c1C

solubility at 24 h [1]: 1.1 mg/mL (≈ 2.35 mM) | solubility at 24 h [2]: 1.1 mg/mL (≈ 2.35 mM) | IC50 (Cytochrome P450 2C9): 5.3 µM
Compound: Cc1c(Oc2ccc(S(C)(=O)=O)cc2F)ncnc1OC1CCN(C(=O)OC(C)C)CC1
